Results taken from ChEMBL document CHEMBL4340547, “Synthesis and SAR development of quinoline analogs as novel P2X7 receptor antagonists” (Bioorg Med Chem Lett, 2019).
pIC50: −log10 of the molar value.

Key:
[1] = Intrinsic clearance in human liver microsomes; format: ADME, Microsome; details: read-out: CLH
P2X purinoceptor 7 [2] = target: T1, P2X purinoceptor 7 (Homo sapiens, UniProt Q99572); test: Antagonist activity at human P2X7 receptor expressed in HEK293 cells assessed as inhibition of BzATP-induced YO PRO dye uptake preincubated for 20 mins followed by YO PRO dye and BzATP addition measured after 30 mins by fluorescence assay; format: cell-based
T1 sequence (Q99572 whole entry): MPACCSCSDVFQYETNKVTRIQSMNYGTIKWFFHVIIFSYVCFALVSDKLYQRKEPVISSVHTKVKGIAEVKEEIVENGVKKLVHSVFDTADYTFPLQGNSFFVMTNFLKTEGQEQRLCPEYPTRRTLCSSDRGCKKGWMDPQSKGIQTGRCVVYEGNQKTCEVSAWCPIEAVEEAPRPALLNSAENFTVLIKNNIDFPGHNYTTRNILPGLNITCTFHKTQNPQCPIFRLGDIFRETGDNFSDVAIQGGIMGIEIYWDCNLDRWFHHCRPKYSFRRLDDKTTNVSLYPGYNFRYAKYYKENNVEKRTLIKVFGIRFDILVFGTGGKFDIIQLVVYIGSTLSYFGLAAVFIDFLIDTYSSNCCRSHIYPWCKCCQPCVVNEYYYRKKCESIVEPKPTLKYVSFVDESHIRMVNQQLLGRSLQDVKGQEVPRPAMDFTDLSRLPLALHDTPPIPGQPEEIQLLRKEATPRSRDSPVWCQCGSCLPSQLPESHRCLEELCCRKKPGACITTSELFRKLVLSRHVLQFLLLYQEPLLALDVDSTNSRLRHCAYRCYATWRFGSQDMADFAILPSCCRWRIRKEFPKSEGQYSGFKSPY

P2X purinoceptor 7 [3] = target: T1, P2X purinoceptor 7; test: Antagonist activity at P2X7R in LPS-stimulated human THP1 cells assessed as inhibition of BzATP-induced IL-1beta release preincubated for 30 mins followed by BzATP stimulation and measured after 30 mins by sandwich ELISA
[4] = Intrinsic clearance in mouse liver microsomes; format: ADME, Microsome; details: read-out: CLH
[5] = Intrinsic clearance in rat liver microsomes; format: ADME, Microsome; details: read-out: CLH
MDR [6] = test: Apparent permeability across apical to basolateral side in MDCK cells expressing MDR; format: ADME, cell-based, Canis lupus familiaris; details: dog, MDCK-MDR1
MDR [7] = test: Efflux ratio of apparent permeability in MDCK cells expressing MDR; format: ADME, cell-based, Canis lupus familiaris; details: dog, MDCK-MDR1
P2X purinoceptor 7 [8] = target: T2, P2X purinoceptor 7 (Rattus norvegicus, UniProt Q64663); test: Antagonist activity at rat P2X7 receptor assessed as inhibition of BzATP-induced YO PRO dye uptake preincubated for 20 mins followed by YO PRO dye and BzATP addition measured after 30 mins by fluorescence assay
T2 sequence (Q64663 whole entry): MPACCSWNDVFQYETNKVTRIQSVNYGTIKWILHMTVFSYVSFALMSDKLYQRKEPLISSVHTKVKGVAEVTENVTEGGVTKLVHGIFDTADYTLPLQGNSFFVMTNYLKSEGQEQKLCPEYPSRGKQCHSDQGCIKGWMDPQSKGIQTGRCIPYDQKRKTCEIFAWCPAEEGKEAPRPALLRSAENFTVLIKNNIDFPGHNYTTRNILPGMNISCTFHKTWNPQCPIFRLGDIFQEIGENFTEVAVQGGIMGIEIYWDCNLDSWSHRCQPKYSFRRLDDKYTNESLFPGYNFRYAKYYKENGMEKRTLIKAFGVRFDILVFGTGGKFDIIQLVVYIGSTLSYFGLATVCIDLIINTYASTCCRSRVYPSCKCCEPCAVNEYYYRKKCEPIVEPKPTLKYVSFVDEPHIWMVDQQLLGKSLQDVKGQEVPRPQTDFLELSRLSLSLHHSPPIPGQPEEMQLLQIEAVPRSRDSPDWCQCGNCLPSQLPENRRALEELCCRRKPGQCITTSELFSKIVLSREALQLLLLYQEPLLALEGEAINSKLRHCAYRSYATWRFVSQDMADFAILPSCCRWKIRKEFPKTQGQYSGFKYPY

P2X purinoceptor 7 [9] = target: T3, P2X purinoceptor 7 (Mus musculus, UniProt Q9Z1M0); test: Antagonist activity at mouse P2X7 receptor assessed as inhibition of BzATP-induced YO PRO dye uptake preincubated for 20 mins followed by YO PRO dye and BzATP addition measured after 30 mins by fluorescence assay
T3 sequence (Q9Z1M0 whole entry): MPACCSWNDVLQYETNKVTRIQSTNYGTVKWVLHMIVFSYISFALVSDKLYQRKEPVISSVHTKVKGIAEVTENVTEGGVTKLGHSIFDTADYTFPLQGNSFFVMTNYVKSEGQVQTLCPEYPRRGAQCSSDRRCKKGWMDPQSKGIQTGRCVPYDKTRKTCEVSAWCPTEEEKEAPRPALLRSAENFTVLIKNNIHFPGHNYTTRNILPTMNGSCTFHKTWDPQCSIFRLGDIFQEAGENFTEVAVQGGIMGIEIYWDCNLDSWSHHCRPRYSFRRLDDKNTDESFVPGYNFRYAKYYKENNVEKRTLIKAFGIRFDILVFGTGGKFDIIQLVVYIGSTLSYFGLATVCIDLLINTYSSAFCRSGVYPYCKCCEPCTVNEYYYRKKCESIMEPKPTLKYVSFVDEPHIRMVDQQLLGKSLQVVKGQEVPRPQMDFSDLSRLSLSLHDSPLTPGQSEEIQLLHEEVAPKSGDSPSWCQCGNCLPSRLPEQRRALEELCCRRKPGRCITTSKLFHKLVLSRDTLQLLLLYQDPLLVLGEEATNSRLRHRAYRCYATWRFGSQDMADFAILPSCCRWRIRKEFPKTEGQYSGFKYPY

[10] = Unbound brain to plasma concentration ratio in mouse at 5 mg/kg, po; format: ADME, organism-based; details: read-out: K(p,uu,brain)
[11] = target: Voltage-gated inwardly rectifying potassium channel KCNH2 (Homo sapiens, UniProt Q12809); test: Activity at human ERG
[12] = Protein binding in human plasma assessed as unbound fraction; format: ADME, cell-free
[13] = Protein binding in mouse plasma assessed as unbound fraction; format: ADME, cell-free
[14] = Protein binding in rat plasma assessed as unbound fraction; format: ADME, cell-free
[15] = Dose normalized AUC in mouse at 0.5 mg/kg, po; format: ADME, organism-based; details: in vivo
[16] = Dose normalized AUC in mouse at 0.2 mg/kg, iv; format: ADME, organism-based; details: in vivo
[17] = Dose normalized Cmax in mouse at 0.5 mg/kg, po; format: ADME, organism-based; details: in vivo
[18] = Dose normalized Cmax in mouse at 0.2 mg/kg, iv; format: ADME, organism-based; details: in vivo
[19] = Terminal half life in mouse at 0.2 mg/kg, iv or 0.5 mg/kg, po; format: ADME, organism-based; details: in vivo, read-out: beta t1/2 (converted)
[20] = Clearance in mouse at 0.2 mg/kg, iv or 0.5 mg/kg, po; format: ADME, organism-based; details: in vivo
[21] = Volume of distribution in mouse at 0.2 mg/kg, iv or 0.5 mg/kg, po; format: ADME, organism-based; details: in vivo
[22] = Oral bioavailability in mouse at 0.5 mg/kg; format: ADME, organism-based; details: in vivo
[23] = AUC in mouse plasma at 5 mg/kg, po; format: ADME, organism-based
[24] = AUC in mouse brain at 5 mg/kg, po; format: ADME, organism-based
[25] = Protein binding in mouse plasma assessed as unbound fraction at 5 mg/kg, po; format: ADME, organism-based
[26] = Protein binding in mouse brain assessed as unbound fraction at 5 mg/kg, po; format: ADME, organism-based
[27] = Protein binding in human plasma; format: ADME, cell-free; details: read-out: PPB
[28] = Protein binding in mouse plasma; format: ADME, cell-free; details: read-out: PPB
[29] = Protein binding in rat plasma; format: ADME, cell-free; details: read-out: PPB

Voltage-gated inwardly rectifying potassium channel KCNH2, sequence (Q12809 whole entry): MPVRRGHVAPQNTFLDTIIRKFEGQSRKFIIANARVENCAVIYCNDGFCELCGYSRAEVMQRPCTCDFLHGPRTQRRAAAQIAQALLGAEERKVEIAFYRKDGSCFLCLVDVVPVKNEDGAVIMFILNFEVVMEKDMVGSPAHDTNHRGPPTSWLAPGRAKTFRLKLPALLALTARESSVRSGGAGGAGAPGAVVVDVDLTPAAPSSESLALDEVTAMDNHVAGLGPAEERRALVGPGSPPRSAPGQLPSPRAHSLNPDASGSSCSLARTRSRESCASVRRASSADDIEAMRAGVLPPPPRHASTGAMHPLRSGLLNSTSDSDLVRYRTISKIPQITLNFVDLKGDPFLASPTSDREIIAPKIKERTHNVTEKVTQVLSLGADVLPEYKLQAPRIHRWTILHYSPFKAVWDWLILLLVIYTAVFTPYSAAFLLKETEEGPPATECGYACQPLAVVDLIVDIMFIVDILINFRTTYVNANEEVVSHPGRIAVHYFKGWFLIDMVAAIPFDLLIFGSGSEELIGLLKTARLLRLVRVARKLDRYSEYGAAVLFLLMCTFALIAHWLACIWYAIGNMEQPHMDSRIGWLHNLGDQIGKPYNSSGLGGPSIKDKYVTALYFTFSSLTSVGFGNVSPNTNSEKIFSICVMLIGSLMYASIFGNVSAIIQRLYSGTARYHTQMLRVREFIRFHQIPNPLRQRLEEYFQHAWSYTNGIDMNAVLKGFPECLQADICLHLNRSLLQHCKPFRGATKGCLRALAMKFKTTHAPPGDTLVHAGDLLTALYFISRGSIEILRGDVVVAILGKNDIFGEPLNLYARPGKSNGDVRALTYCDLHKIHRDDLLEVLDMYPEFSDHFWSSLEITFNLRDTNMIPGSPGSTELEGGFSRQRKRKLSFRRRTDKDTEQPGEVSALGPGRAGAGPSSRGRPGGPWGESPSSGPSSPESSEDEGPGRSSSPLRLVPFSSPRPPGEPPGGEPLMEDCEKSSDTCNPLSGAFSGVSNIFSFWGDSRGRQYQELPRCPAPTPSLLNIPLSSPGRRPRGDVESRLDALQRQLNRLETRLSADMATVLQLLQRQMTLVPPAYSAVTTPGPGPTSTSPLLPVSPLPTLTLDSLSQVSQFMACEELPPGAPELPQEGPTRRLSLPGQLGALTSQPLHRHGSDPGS

Row | microsomal CLint [1] | pIC50 (P2X purinoceptor 7 [2]) | pIC50 (P2X purinoceptor 7 [3]) | microsomal CLint [4] | microsomal CLint [5] | Papp A→B (MDR [6]) | efflux ratio (MDR [7]) | pIC50 (P2X purinoceptor 7 [8]) | pIC50 (P2X purinoceptor 7 [9]) | SMILES | further results
1 | 12 µL/min/mg | 7.72 | 6.98 | 10 µL/min/mg | 31 µL/min/mg | 18.4 ×10⁻⁶ cm/s | 0.69 |  |  | O=C(NCC1CCC(F)(F)CC1)c1c(Cl)ccc2nc(N3CC[C@@H](F)C3)ccc12 | 
2 | 50 µL/min/mg | 7.72 | 7.44 | 48 µL/min/mg | 31 µL/min/mg | 6.8 ×10⁻⁶ cm/s | 8.7 | 5.37 | 5.32 | O=C(NC[C@]1(O)CCCC(F)(F)C1)c1c(Cl)ccc2nc(N3CC[C@@H](F)C3)ccc12 | 
3 | 44 µL/min/mg | 8.44 | 8.22 | 52 µL/min/mg | 32 µL/min/mg | 1.4 ×10⁻⁶ cm/s | 39 | 6.26 | 5.70 | C[C@@H]1CCC[C@@](O)(CNC(=O)c2c(Cl)ccc3nc(N4CCC(N(C)C)C4)ccc23)C1 (stereo partly specified) | 
4 | 75 µL/min/mg | 7.85 | 8.13 | 68 µL/min/mg | 10 µL/min/mg | 1.5 ×10⁻⁶ cm/s | 34 | 6.89 | 5.43 | C[C@@H]1CCC[C@@](O)(CNC(=O)c2c(Cl)ccc3nc(N4CC[C@@H](C(C)(C)O)C4)ccc23)C1 | 
5 | 10 µL/min/mg | 8.09 | 6.96 | 49 µL/min/mg | 21 µL/min/mg | 14.1 to 14.4 ×10⁻⁶ cm/s | 0.85 | 5.29 | 5.69 | O=C(NCC1CCC(F)(F)CC1)c1c(Cl)ccc2nc(N3CC[C@H](F)C3)ccc12 | Kp uu [10]: 0.37; Activity [11]: 30 µM; fraction unbound [12]: 0.055; fraction unbound [13]: 0.03; fraction unbound [14]: 0.041; AUC/dose [15]: 72.9 ng·h/mL; AUC/dose [16]: 238 ng·h/mL; Cmax/dose [17]: 75.1 ng/mL; Cmax/dose [18]: 545 ng/mL; half-life [19]: 28.8 min; clearance [20]: 69.8 mL/min/kg; Vd [21]: 1.81 L/kg; bioavailability [22]: 31%; AUC [23]: 84.7 ng·h/mL; AUC [24]: 30.9 ng·h/mL; fraction unbound [25]: 0.03; fraction unbound [26]: 0.03; fraction unbound [27]: 0.03 to 0.1; fraction unbound [28]: 0.03 to 0.1; fraction unbound [29]: 0.03 to 0.1
6 | 32 µL/min/mg | 7.33 | 7.00 | 23 µL/min/mg | 46 µL/min/mg | 16.5 ×10⁻⁶ cm/s | 3.8 |  |  | O=C(NCC1CCC(F)(F)CC1)c1c(Cl)ccc2nc(N3CCC(CCO)C3)ccc12 (stereo unspecified) | 
7 |  | 7.14 | 7.12 |  |  |  |  |  |  | O=C(NCC1CCC(F)(F)CC1)c1c(Cl)ccc2nc(NCCO)ccc12 | 
8 | 17 µL/min/mg | 8.00 | 7.92 | 10 µL/min/mg | 10 µL/min/mg | 0.18 ×10⁻⁶ cm/s | 114 |  |  | O=C(NCC1CCC(F)(F)CC1)c1c(Cl)ccc2nc(N3CCC(NCCO)C3)ccc12 (stereo unspecified) | 
9 | 80 µL/min/mg | 7.30 | 7.12 | 24 µL/min/mg | 25 µL/min/mg | 6 ×10⁻⁶ cm/s | 6.9 |  |  | CN(C)[C@H]1CCN(c2ccc3c(C(=O)NCC4CCC(F)(F)CC4)c(Cl)ccc3n2)C1 | 
